Data as given in US12168086B2, “Hemostatic devices and methods of use” (priority 2016, dated 2024).
Each block holds one compound with its values, some of them ahead of it.

Experiments:
myofibroblast formation = details: Ajmal et al. (2003); cited from earlier work
[1] = PBS pH 7.4 without TXA, with TXA 0.05 mg/mL or 5 mg/mL, over 25 hours
[2] = time to reach plasma concentrations; details: in vivo
blood clotting = details: in vitro, 1.2 mg of TXA alone

Compound: O=S(=O)([O-])CCS.[Na+] [MESNA, sodium 2-mercaptoethane sulfonate]
myofibroblast formation (myofibroblast formation): diminish myofibroblast formation

elution rate from p22-27.5 polymer [1]: not affected by the presence of TXA
Compound: CO[C@H]1/C=C/O[C@@]2(C)Oc3c(C)c(O)c4c(O)c(c(/C=N/N5CCN(C)CC5)c(O)c4c3C2=O)NC(=O)/C(C)=C\C=C\[C@H](C)[C@H](O)[C@@H](C)[C@@H](O)[C@@H](C)[C@H](OC(C)=O)[C@@H]1C [rifampin]

time to reach plasma concentrations [2]: 5 to 15 min
Compound: NC[C@H]1CC[C@H](C(=O)O)CC1 [tranexamic acid]
time to induce blood clotting (blood clotting): about 19 minutes
